Key:
[1] = biological target: T1, Metabotropic glutamate receptor 5 (Rattus norvegicus, UniProt P31424); experiment: Displacement of [3H]MPEP from rat brain recombinant mGluR5 expressed in HEK293T cells by scintillation counting; type: cell-based, HEK-293T
[2] = biological target: T2, Metabotropic glutamate receptor 5 (Homo sapiens, UniProt P41594); experiment: Antagonist activity at cloned mGluR5 expressed in CHO cells co-transfected with chimeric G protein Gqi9 assessed as inhibition of glutamate-induced intracellular inositol phosphate accumulation at 10 uM by phosphoinositide hydrolysis assay; type: functional, cell-based
[3] = biological target: Metabotropic glutamate receptor 1 (Homo sapiens) (UniProt Q13255); experiment: Antagonist activity at cloned mGluR1 expressed in CHO cells co-transfected with chimeric G protein Gqi9 assessed as inhibition of glutamate-induced intracellular inositol phosphate accumulation at 10 uM by phosphoinositide hydrolysis assay; type: functional, cell-based
[4] = biological target: Metabotropic glutamate receptor 6 (Homo sapiens) (UniProt O15303); experiment: Antagonist activity at cloned mGluR6 expressed in CHO cells co-transfected with chimeric G protein Gqi9 assessed as inhibition of glutamate-induced intracellular inositol phosphate accumulation at 10 uM by phosphoinositide hydrolysis assay; type: functional, cell-based
[5] = biological target: T2, Metabotropic glutamate receptor 5; experiment: Displacement of [3H]MPEP from cloned mGluR5 expressed in HEK293T cells by scintillation counting; type: cell-based, HEK-293T
[6] = biological target: T1, Metabotropic glutamate receptor 5; experiment: Antagonist activity at rat mGluR5 expressed in HEK293A cells assessed as glutamate-induced calcium flux preincubated for 140 sec before glutamate challenge by calcium fluorescence assay; type: functional, cell-based, HEK293-A
[7] = biological target: T3, Sodium-dependent dopamine transporter (Homo sapiens, UniProt Q01959); experiment: Displacement of [125I]RTI55 from human DAT expressed in HEK293 cells; type: cell-based
[8] = biological target: T4, Sodium-dependent serotonin transporter (Homo sapiens, UniProt P31645); experiment: Displacement of [125I]RTI55 from human SERT expressed in HEK293 cells; type: cell-based
[9] = biological target: T5, Sodium-dependent noradrenaline transporter (Homo sapiens, UniProt P23975); experiment: Displacement of [125I]RTI55 from human NET expressed in HEK293 cells; type: cell-based
[10] = biological target: T3, Sodium-dependent dopamine transporter; experiment: Inhibition of dopamine uptake at human DAT expressed in HEK293 cells; type: cell-based
[11] = biological target: T4, Sodium-dependent serotonin transporter; experiment: Inhibition of serotonin uptake at human SERT expressed in HEK293 cells; type: cell-based
[12] = biological target: T5, Sodium-dependent noradrenaline transporter; experiment: Inhibition of norepinephrine uptake at human NET expressed in HEK293 cells; type: cell-based

Sequence of Metabotropic glutamate receptor 6 (Homo sapiens) (O15303 whole entry): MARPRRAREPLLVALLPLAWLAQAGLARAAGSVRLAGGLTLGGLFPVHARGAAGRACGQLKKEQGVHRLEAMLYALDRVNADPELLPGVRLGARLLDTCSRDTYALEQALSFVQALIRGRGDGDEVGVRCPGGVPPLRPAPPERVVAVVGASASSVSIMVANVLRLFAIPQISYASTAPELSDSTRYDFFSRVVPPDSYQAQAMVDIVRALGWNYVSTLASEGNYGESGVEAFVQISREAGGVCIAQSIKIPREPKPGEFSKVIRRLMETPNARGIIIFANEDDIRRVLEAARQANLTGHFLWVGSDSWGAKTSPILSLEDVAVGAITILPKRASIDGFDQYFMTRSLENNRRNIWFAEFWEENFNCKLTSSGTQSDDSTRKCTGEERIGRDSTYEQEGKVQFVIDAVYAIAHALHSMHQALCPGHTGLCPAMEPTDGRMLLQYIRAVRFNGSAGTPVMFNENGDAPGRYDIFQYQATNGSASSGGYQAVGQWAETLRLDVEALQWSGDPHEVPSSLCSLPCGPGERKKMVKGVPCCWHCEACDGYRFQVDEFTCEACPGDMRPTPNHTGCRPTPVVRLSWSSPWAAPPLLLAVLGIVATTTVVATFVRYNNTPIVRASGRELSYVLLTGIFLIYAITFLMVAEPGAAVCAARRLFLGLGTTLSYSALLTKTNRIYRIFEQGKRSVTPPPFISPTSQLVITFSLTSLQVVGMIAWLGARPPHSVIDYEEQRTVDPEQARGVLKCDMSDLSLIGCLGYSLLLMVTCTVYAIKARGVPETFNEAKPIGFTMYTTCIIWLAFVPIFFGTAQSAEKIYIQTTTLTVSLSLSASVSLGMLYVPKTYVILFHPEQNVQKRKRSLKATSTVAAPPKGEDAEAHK
T4 sequence (P31645 whole entry): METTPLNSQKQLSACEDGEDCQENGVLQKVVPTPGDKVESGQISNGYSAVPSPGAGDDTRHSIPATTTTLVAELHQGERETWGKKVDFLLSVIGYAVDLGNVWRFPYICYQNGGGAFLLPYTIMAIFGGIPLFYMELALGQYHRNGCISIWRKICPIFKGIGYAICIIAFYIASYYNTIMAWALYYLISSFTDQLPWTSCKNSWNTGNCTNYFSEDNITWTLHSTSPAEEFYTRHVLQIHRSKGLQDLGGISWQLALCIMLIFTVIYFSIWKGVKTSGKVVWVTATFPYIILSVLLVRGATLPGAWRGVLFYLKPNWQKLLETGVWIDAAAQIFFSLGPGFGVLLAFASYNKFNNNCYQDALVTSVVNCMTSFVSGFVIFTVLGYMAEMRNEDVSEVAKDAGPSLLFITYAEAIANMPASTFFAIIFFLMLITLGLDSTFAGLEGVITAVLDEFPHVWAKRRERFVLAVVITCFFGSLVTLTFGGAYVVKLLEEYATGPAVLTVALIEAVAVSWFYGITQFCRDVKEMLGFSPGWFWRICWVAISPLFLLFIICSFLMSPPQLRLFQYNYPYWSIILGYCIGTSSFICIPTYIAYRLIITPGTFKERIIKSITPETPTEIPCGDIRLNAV
T5 sequence (P23975 whole entry): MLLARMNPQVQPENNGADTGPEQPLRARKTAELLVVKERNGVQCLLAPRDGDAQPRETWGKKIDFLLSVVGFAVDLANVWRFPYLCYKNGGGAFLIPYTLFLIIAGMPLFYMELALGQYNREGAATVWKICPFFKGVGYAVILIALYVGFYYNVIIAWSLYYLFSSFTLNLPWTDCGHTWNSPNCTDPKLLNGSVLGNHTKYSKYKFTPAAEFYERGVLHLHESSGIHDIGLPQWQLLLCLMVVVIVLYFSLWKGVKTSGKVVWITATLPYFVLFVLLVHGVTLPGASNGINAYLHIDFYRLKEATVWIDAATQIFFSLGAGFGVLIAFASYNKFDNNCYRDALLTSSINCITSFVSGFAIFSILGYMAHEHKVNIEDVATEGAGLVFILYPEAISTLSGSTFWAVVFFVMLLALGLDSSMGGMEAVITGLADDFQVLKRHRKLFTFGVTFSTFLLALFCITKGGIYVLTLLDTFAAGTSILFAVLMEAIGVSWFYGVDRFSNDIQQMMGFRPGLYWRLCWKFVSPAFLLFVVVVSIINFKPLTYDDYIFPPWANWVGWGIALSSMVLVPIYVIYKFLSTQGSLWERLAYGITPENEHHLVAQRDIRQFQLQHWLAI
T1 sequence (P31424 whole entry): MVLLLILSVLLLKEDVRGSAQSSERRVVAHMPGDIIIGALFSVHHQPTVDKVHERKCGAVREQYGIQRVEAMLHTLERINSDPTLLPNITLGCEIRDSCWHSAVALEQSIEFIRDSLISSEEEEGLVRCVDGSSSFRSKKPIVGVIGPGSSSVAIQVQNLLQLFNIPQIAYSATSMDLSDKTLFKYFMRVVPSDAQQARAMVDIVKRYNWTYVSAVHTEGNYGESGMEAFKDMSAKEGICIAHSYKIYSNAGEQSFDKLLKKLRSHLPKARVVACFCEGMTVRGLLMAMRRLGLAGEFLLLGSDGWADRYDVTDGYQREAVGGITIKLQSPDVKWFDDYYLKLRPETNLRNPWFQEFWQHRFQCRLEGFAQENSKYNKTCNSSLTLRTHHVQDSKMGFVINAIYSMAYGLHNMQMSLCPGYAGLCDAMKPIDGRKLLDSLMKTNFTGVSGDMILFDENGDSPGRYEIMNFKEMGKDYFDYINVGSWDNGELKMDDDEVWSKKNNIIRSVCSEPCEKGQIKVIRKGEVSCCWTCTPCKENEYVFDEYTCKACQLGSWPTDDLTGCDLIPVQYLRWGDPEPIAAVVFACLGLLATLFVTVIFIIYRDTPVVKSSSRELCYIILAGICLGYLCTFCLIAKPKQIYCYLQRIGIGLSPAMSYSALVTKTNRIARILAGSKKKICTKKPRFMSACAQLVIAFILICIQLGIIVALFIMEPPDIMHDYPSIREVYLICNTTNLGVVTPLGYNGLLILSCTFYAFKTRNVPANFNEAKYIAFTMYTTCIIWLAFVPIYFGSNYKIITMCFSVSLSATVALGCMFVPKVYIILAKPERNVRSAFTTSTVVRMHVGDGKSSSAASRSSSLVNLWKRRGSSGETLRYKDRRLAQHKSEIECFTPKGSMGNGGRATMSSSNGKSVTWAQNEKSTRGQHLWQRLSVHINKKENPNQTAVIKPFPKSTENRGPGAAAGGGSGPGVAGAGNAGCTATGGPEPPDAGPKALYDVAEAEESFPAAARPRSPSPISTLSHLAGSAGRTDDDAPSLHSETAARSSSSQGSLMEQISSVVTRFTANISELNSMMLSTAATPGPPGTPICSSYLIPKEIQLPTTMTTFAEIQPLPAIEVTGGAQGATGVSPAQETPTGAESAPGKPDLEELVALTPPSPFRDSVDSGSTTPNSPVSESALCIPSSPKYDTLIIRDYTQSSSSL
Sequence of Metabotropic glutamate receptor 1 (Homo sapiens) (Q13255 19-1194 limits assumed): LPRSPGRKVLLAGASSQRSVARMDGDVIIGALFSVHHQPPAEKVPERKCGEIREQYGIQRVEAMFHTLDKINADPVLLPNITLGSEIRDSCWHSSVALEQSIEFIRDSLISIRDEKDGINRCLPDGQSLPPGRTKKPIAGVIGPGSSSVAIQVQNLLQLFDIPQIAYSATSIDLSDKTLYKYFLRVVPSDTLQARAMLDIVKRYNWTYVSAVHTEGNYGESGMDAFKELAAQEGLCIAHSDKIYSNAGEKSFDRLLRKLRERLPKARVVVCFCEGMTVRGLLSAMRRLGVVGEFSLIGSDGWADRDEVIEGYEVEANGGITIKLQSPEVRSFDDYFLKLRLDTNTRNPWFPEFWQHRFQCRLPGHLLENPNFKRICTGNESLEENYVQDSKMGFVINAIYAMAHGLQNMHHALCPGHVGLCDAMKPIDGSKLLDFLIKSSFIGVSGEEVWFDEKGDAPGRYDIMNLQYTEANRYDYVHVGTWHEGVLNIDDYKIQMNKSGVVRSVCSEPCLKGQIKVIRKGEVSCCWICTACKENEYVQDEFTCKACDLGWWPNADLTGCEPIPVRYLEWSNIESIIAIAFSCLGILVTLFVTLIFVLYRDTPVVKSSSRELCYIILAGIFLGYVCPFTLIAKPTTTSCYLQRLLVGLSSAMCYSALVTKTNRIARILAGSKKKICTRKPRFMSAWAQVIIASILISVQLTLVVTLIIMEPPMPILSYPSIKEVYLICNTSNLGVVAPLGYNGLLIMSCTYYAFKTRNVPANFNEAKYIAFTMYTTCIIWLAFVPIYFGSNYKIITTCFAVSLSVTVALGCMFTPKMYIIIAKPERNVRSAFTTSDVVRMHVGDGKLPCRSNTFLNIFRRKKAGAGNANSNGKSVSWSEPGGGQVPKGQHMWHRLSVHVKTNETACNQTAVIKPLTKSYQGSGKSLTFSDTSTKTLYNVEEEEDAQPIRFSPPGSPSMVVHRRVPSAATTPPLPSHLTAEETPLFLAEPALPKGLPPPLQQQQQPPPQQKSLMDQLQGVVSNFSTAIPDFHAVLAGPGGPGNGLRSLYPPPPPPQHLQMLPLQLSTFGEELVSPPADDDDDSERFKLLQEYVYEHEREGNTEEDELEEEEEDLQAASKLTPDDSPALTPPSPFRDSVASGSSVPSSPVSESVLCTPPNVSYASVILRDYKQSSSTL

Compound | Ki [1] [nM] | inhibition [2] [%] | inhibition [3] [%] | inhibition [4] [%] | Ki [5] [nM] | IC50 [6] [nM] | Ki [7] [nM] | Ki [8] [nM] | Ki [9] [nM] | Ki [10] [nM] | Ki [11] [nM] | Ki [12] [nM]
Cc1cccc(NC(=O)c2cc(F)cc(-c3cccnc3)c2)n1 | 702 | > 70 | < 70 | < 70 |  |  |  |  |  |  |  | 
Cc1nc(C#Cc2cc(F)cc(C#N)c2)cs1 |  | > 70 | < 70 | < 70 | 0.9 | 0.813 |  |  |  |  |  | 
Cc1nc(C#Cc2ccc(-c3cccnc3)nc2)cs1 |  | > 70 | < 70 | < 70 |  |  |  |  |  |  |  | 
Cc1cccc(NC(=O)c2ccc(-c3ccc(F)cc3)c(C#N)c2)n1 | 134 | > 70 | < 70 | < 70 |  | 4.57 |  |  |  |  |  | 
Cc1nc(C#Cc2cccnc2)cs1 |  | < 70 | < 70 | < 70 |  |  |  |  |  |  |  | 
Cc1nc(C#Cc2ccc(-c3cccnc3)c(F)c2)cs1 |  | > 70 | < 70 | < 70 |  |  | > 6000 | > 6000 | > 6000 | > 6000 | > 6000 | > 6000
Cc1nc(C#Cc2cccc(-c3ccccc3)c2)cs1 |  | > 70 | < 70 | < 70 |  |  |  |  |  |  |  | 
Cc1cccc(NC(=O)c2ccc(-c3cccnc3)c(F)c2)n1 | 7720 | > 70 | < 70 | < 70 |  | > 3000 |  |  |  |  |  | 
Cc1cccc(NC(=O)c2cc(F)cc(-c3ccccc3C)c2)n1 | 610 | > 70 | < 70 | < 70 |  |  |  |  |  |  |  | 
COc1ccccc1-c1cncc(C(=O)Nc2cccc(C)n2)c1 | 4920 | > 70 | < 70 | < 70 |  |  |  |  |  |  |  | 
Cc1nc(C#Cc2ccc(-c3ccccc3)nc2)cs1 |  | > 70 | < 70 | < 70 |  |  |  |  |  |  |  | 
Cc1nc(C#Cc2cc(F)cc(-c3cccnc3)c2)cs1 |  | > 70 | < 70 | < 70 | 2.7 | 4.83 | > 6000 | > 6000 | > 6000 | > 6000 | > 6000 | > 6000
Cc1cccc(NC(=O)c2cc(F)cc(C#N)c2)n1 | 65.5 | > 70 | < 70 | < 70 |  | 21.7 |  |  |  |  |  | 
Cc1cccc(NC(=O)c2ccc(Oc3ccccc3)cc2)n1 |  | > 70 | < 70 | < 70 | 7290 |  |  |  |  |  |  | 
COc1ccccc1-c1cc(F)cc(C(=O)Nc2cccc(C)n2)c1 | > 10000 | > 70 | < 70 | < 70 |  |  |  |  |  |  |  | 
Cc1cccc(C#Cc2cccc(C#N)c2)n1 | 1.3 | > 70 | < 70 | < 70 |  | 0.415 |  |  |  |  |  | 
Cc1cccc(C#Cc2ccc(-c3ccc(F)cc3)c(C#N)c2)n1 | 3 | > 70 | < 70 | < 70 |  | 7.19 |  |  |  |  |  | 
Cc1cccc(C#Cc2ccccc2)n1 |  | > 70 | < 70 | < 70 |  |  |  |  |  |  |  | 
Cc1cccc(NC(=O)c2ccc(-c3cccc4ccccc34)c(C#N)c2)n1 | 72 | > 70 | < 70 | < 70 |  | 640 |  |  |  |  |  | 
Cc1cccc(NC(=O)c2cc(-c3cc(F)cc(F)c3)ccn2)n1 |  | > 70 | < 70 | < 70 |  | 98.1 |  |  |  |  |  | 

Now from value to compound:

Ki [1] [nM] | inhibition [2] [%] | inhibition [3] [%] | inhibition [4] [%] | Ki [5] [nM] | IC50 [6] [nM] | Ki [7] [nM] | Ki [8] [nM] | Ki [9] [nM] | Ki [10] [nM] | Ki [11] [nM] | Ki [12] [nM] | Compound
7300 | > 70 | < 70 | < 70 |  |  |  |  |  |  |  |  | Cc1cccc(NC(=O)c2cccc(-c3ccccc3)c2)n1
2480 | > 70 | < 70 | < 70 |  | > 3000 |  |  |  |  |  |  | Cc1cccc(NC(=O)c2ccc(-c3cccnc3)nc2)n1
 | > 70 | < 70 | < 70 | > 10000 |  |  |  |  |  |  |  | Cc1cccc(NC(=O)c2ccc(C#N)cc2)n1
 | ≤ 70 | < 70 | < 70 | 7580 |  |  |  |  |  |  |  | Cc1cccc(NC(=O)c2cc(F)cc(F)c2)n1
1730 | > 70 | < 70 | < 70 |  | 1870 |  |  |  |  |  |  | Cc1cccc(NC(=O)c2cccc(Cl)c2)n1
 | > 70 | < 70 | < 70 | > 10000 |  |  |  |  |  |  |  | Cc1cccc(NC(=O)c2ccc(Br)cc2)n1
2040 | > 70 | < 70 | < 70 |  | > 1000 |  |  |  |  |  |  | Cc1cccc(NC(=O)c2ccc(-c3cccnc3)c(C#N)c2)n1
2780 | > 70 | < 70 | < 70 |  | > 1000 |  |  |  |  |  |  | Cc1cccc(NC(=O)c2ccc(-c3cccnc3)c(Cl)c2)n1
 | > 70 | < 70 | < 70 | > 10000 |  |  |  |  |  |  |  | Cc1cccc(NC(=O)c2ccc(F)c(F)c2)n1
330 | > 70 | < 70 | < 70 |  | 490 |  |  |  |  |  |  | Cc1cccc(NC(=O)c2cccc(C#N)c2)n1
 | ≤ 70 | < 70 | < 70 | 7000 |  |  |  |  |  |  |  | Cc1cccc(NC(=O)c2ccc(-c3ccccc3)cc2)n1
 |  |  |  | 9.8 | 13.7 | > 6000 | > 6000 | > 6000 | > 6000 | > 6000 | > 6000 | Cc1cccc(NC(=O)c2ccc(-c3ccccc3)c(C#N)c2)n1
356 | > 70 | < 70 | < 70 |  | > 3000 |  |  |  |  |  |  | Cc1cccc(NC(=O)c2ccc(-c3ccccc3)nc2)n1
 | > 70 | < 70 | < 70 |  |  | > 6000 | > 6000 | > 6000 | > 6000 | > 6000 | > 6000 | Cc1cccc(NC(=O)c2ccc(-c3cccc(F)c3)c(C#N)c2)n1
 | ≤ 70 | < 70 | < 70 | > 10000 |  |  |  |  |  |  |  | Cc1cccc(NC(=O)c2ccc(-c3cccc(C#N)c3)cc2)n1
 | ≤ 70 | < 70 | < 70 | 3330 |  |  |  |  |  |  |  | Cc1cccc(NC(=O)c2ccc(-c3cccc(Cl)c3)cc2)n1
> 10000 | > 70 | < 70 | < 70 |  |  |  |  |  |  |  |  | Cc1cccc(NC(=O)c2cncc(-c3cccnc3)c2)n1

— ChEMBL document CHEMBL1136938, “Structure-activity relationships comparing N-(6-methylpyridin-yl)-substituted aryl amides to 2-methyl-6-(substituted-arylethynyl)pyridines or 2-methyl-4-(substituted-arylethynyl)thiazoles as novel metabotropic glutamate receptor subtype 5 antagonists” (J Med Chem, 2009)
